# In patent US20070243137A1, “Cell and sub-cell methods for imaging and therapy” (priority 2006, published 2007):
# Several values for one entry are separate records, joined by “and”; a condition that tells them apart may be missing. Equal entries are not always repeated.
# What was measured:
# [1] = MRI imaging (1.5 Tesla, T1) of rat bearing subcutaneous F98 glioma tumor after intravenous injection; assay type: in vivo
# Description: A male rat bearing a subcutaneous F98 glioma tumor in its thigh was anesthetized and a catheter inserted into the femoral vein. The animal was then placed in a 1.5 Tesla clinical MRI scanner with a head coil around it. T1 images were acquired before injection. The sample in example 2 was used without further purification, and an amount was injected, corresponding to a dose of 0.1 mmol Gd/kg, which is the recommended dose/weight for gadodiamide use in vivo. Images were acquired using both T1 and T2 modes. […] For comparison, a rat bearing a similar tumor was injected with 0.1 mmol gadodiamide/kg. […] Many of the smaller vesicles filtered through the kidneys, since at 30 min post injection not only was contrast seen in the urine in the bladder (as also seen with the gadodiamide only preparation), but high contrast was seen on the surface of the urine in the bladder. This may be explained by the lower density of the lipid-containing vesicles, allowing them to float on the surface. […] It should be noted that whatever the fate of the contrast agent is, only an FDA approved standard amount was injected, and should not cause any toxic effects.
# [2] = in vivo; cited from earlier work
# [3] = abdominal aorta, 10 min after injection
# [4] = hepatic portal vein, 10 min after injection
# [5] = inferior vena cava, 10 min after injection
compound,measurement,setting,value
"CNC(=O)CN(CCN(CCN(CC(=O)[O-])CC(=O)NC)CC(=O)[O-])CC(=O)[O-].[Gd+3] [gadodiamide, Gadolinium diethylenetriaminepentaacetic acid bismethyl-amide]",maximal tumor contrast relative to rat given vesicle-loaded gadodiamide,"[1]; 0.1 mmol gadodiamide/kg, rat with similar tumor",approximately one-half
same,"After injection (HU), tumor","[1]; F98 glioma tumor in thigh, 10 min after i.v. injection, 0.1 mmol Gd/kg",828±82 HU and 828 HU
same,"After injection (HU), Abdominal Aorta","[1]; abdominal aorta, 10 min after i.v. injection, 0.1 mmol Gd/kg",627±76 HU and 627 HU
same,"Contrast change (HU), Abdominal Aorta",[1]; [3],9 HU
same,"Percent change, Abdominal Aorta",[1]; [3],1%
same,"After injection (HU), Heart","[1]; heart, 10 min after i.v. injection, 0.1 mmol Gd/kg, T1",540±137 HU and 540 HU
same,"Contrast change (HU), Heart","[1]; heart, 10 min after injection",91 HU
same,"Percent change, Heart","[1]; heart, 10 min after injection",20%
same,"After injection (HU), hepatic portal vein","[1]; hepatic portal vein, 10 min after i.v. injection, 0.1 mmol Gd/kg",774±47 HU and 774 HU
same,"Contrast change (HU), hepatic portal vein",[1]; [4],96 HU
same,"Percent change, hepatic portal vein",[1]; [4],14%
same,"After injection (HU), Inferior vena cava","[1]; inferior vena cava, 10 min after i.v. injection, 0.1 mmol Gd/kg",770±49 HU and 770 HU
same,"Contrast change (HU), Inferior vena cava",[1]; [5],10 HU
same,"Percent change, Inferior vena cava",[1]; [5],1%
same,"After injection (HU), Kidney","[1]; kidney, 10 min after i.v. injection, 0.1 mmol Gd/kg",1411±136 HU and 1411 HU
same,"Contrast change (HU), Kidney","[1]; kidney, 10 min after injection",848 HU
same,"Percent change, Kidney","[1]; kidney, 10 min after injection",151%
same,"After injection (HU), Liver","[1]; liver, 10 min after i.v. injection, 0.1 mmol Gd/kg",831±27 HU and 804±58 HU and 831 HU
same,"Contrast change (HU), Liver","[1]; liver, 10 min after injection",16 HU
same,"Percent change, Liver","[1]; liver, 10 min after injection",2%
same,vascular contrast in T1 mode,"[1]; minutes after injection up to 20 minutes or more, 0.1 mmol/kg",not significantly contrasted
same,"Contrast change (HU), tumor","[1]; tumor, 10 min after injection",321 HU
same,"Percent change, tumor","[1]; tumor, 10 min after injection",63%
same,blood half-life,[2],~20 min
"O=C([O-])CN(CCN(CC(=O)[O-])CC(=O)O)CCN(CC(=O)[O-])CC(=O)O.[Gd+3] [Gd-DTPA, gadolinium diethytriaminepentaacetic acid]",blood half-life,[2],~20 min
